Here are results for 36 molecules from US7101878B1 (Agouron Pharmaceuticals, Inc., priority 1998, dated 2006).

This assay concerns the target T1, human GnRH receptor (Homo sapiens, UniProt P30968).
T1 construct: expressed in transfected cells; host or cells: HEK 293 (hGnRH-R/293, from Dr. Stuart Sealfon)
T1 sequence (P30968 1-328): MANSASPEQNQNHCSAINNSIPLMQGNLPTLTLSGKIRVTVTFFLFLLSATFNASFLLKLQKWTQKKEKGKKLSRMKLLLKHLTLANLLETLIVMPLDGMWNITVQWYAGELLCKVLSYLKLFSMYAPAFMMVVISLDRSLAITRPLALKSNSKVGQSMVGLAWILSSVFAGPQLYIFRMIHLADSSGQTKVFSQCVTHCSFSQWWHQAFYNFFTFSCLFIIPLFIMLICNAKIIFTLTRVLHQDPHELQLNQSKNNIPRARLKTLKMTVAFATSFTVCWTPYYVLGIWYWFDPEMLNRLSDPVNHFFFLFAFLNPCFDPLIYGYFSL
In words: Radioligand binding, 125I-GnRH-A displacement, membranes of HEK 293 cells with human GnRH receptor. Put shortly: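 After filtration and PBS washes, bound radioactivity was counted by scintillation and IC50 derived. Identical conditions applied for non-human receptors.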

Where [1] appears, read: 1 uM, read-out: % Inhib. @ 1 uM hGnRH.
Setting [2] is: 1 h, repeat of % Inhib. at 1 uM, read-out: Repeats @ 1 uM hGnRH.

Each structure is given as a SMILES string. Like-named read-outs stand apart in the source and are kept apart here.

On to `Cc1cc2c(cc1Cc1ccc(C(=O)NCCc3c[nH]c4ccc(Cl)cc34)o1)C(C)(C)CCC2(C)C` [drawing 1007], for which the inhibition at 1 µM is, setting by setting: under setting [1], 31%; under setting [2], 45%.
For `Cc1cc2c(cc1Cc1ccc(C(=O)Nc3nc(N(C)C)nc4nc[nH]c34)o1)C(C)(C)CCC2(C)C` [drawing 1008], the inhibition at 1 µM reads like this: under setting [1], -13%; under setting [2], -9%.
`Cc1cnc(CNC(=O)c2ccc(Cc3cc4c(cc3C)C(C)(C)CCC4(C)C)o2)cn1` [drawing 1009]: the inhibition at 1 µM came out at 107% (1 h, read-out: Repeats @ 1 uM hGnRH) and 102% (read-out: % Inhib. @ 1 uM hGnRH).
Take `Cc1cc2c(cc1Cc1ccc(C(=O)NCCc3c[nH]c4ccccc34)o1)C(C)(C)CCC2(C)C` [drawing 1012]: the inhibition at 1 µM reads like this: under setting [1], 78%; under setting [2], 81%.
For `Cc1cc2c(cc1Cc1ccc(C(=O)NCc3ccc(-c4csnn4)cc3)o1)C(C)(C)CCC2(C)C` [drawing 1013], the inhibition at 1 µM is, setting by setting: under setting [1], 87%; under setting [2], 92%.
The corresponding values for `Cc1cc2c(cc1Cc1ccc(C(=O)NCc3ccc(C(=O)O)cc3)o1)C(C)(C)CCC2(C)C` [drawing 1016] are 44% and 45%.
`Cc1cc2c(cc1Cc1ccc(C(=O)NCCc3ccc(N)cc3)o1)C(C)(C)CCC2(C)C` [drawing 1017]: the inhibition at 1 µM is, setting by setting: under setting [1], 57%; under setting [2], 64%.
Take `Cc1cc2c(cc1Cc1ccc(C(=O)NCC(F)(F)F)o1)C(C)(C)CCC2(C)C` [drawing 1018]: the inhibition at 1 µM by setting is: under setting [1], 18%; under setting [2], 9%.
In the case of `Cc1cc2c(cc1Cc1ccc(C(=O)NCCc3cccc(C(F)(F)F)c3)o1)C(C)(C)CCC2(C)C` [drawing 1020], the inhibition at 1 µM runs as follows: under setting [1], 33%; under setting [2], 89%.
In the case of `Cc1cc2c(cc1Cc1ccc(C(=O)NCC(=O)Nc3ccc([N+](=O)[O-])cc3)o1)C(C)(C)CCC2(C)C` [drawing 1022], the inhibition at 1 µM amounted to 83% under setting [1] and 86% under setting [2].
Consider `Cc1cc2c(cc1Cc1ccc(C(=O)NCCc3cccs3)o1)C(C)(C)CCC2(C)C` [drawing 1023], for which the inhibition at 1 µM came to 63% under setting [1] and 64% under setting [2].
The corresponding values for `Cc1cc2c(cc1Cc1ccc(C(=O)NCC3CCC(C(=O)O)CC3)o1)C(C)(C)CCC2(C)C` (stereo not drawn) [drawing 1024] are 66% and 76%.
Take `Cc1cc2c(cc1Cc1ccc(C(=O)NCCc3ccncc3)o1)C(C)(C)CCC2(C)C` [drawing 1025]: the inhibition at 1 µM by setting is: under setting [1], 83%; under setting [2], 84%.
With `COc1cc(CNC(=O)c2ccc(Cc3cc4c(cc3C)C(C)(C)CCC4(C)C)o2)cc(OC)c1` [drawing 1026], the inhibition at 1 µM under setting [1] turned out to be 24% and the inhibition at 1 µM under setting [2] came out at 35%.
The corresponding values for `CNCCCNC(=O)c1ccc(Cc2cc3c(cc2C)C(C)(C)CCC3(C)C)o1` [drawing 1027] are -22% and -25%.
For `Cc1cc2c(cc1Cc1ccc(C(=O)NCc3cccc(NC(=O)N(Cc4ccccc4)c4ccccc4)c3)o1)C(C)(C)CCC2(C)C` [drawing 1029], in that order: -4% and 2%.
For the molecule `Cc1cc2c(cc1Cc1ccc(C(=O)NCc3ccc(F)c(F)c3)o1)C(C)(C)CCC2(C)C` [drawing 1030], the inhibition at 1 µM reads like this: under setting [1], 55%; under setting [2], 60%.
The corresponding values for `Cc1cc2c(cc1Cc1ccc(C(=O)NCCc3c[nH]cn3)o1)C(C)(C)CCC2(C)C` [drawing 1031] are 22% and 28%.
For the molecule `Cc1cc2c(cc1Cc1ccc(C(=O)NCCc3cccnc3)o1)C(C)(C)CCC2(C)C` [drawing 1032], the inhibition at 1 µM is 80% under setting [1] and 90% under setting [2].
With `Cc1cc2c(cc1Cc1ccc(C(=O)NCCCNCCCCNCCCN)o1)C(C)(C)CCC2(C)C` [drawing 1034], the inhibition at 1 µM under setting [1] is -20% and the inhibition at 1 µM under setting [2] is -26%.
The corresponding values for `Cc1cc2c(cc1Cc1ccc(C(=O)NC3CCN(c4nccc(NCC5CCCO5)n4)C3)o1)C(C)(C)CCC2(C)C` (stereo not drawn) [drawing 1036] are -12% and 0%.
On to `Cc1cc2c(cc1Cc1ccc(C(=O)NCC3CCN(c4nccc(NCC5CCCO5)n4)CC3)o1)C(C)(C)CCC2(C)C` (stereo not drawn) [drawing 1037], for which the inhibition at 1 µM by setting is: under setting [1], 35%; under setting [2], 35%.
On to `Cc1cc2c(cc1Cc1ccc(C(=O)NCCc3cccc(Oc4ccccc4)c3)o1)C(C)(C)CCC2(C)C` [drawing 1039], for which the inhibition at 1 µM is -2% under setting [1] and 4% under setting [2].
With `Cc1cc2c(cc1Cc1ccc(C(=O)NCCc3ccccc3Oc3ccccc3)o1)C(C)(C)CCC2(C)C` [drawing 1040], the inhibition at 1 µM by setting is: under setting [1], -11%; under setting [2], -8%.
`Cc1cc2c(cc1Cc1ccc(C(=O)NCCN3CCNC3=O)o1)C(C)(C)CCC2(C)C` [drawing 1041]: the inhibition at 1 µM reads like this: under setting [1], 32%; under setting [2], 44%.
For `Cc1cc2c(cc1Cc1ccc(C(=O)NCCNCCNc3ccccc3)o1)C(C)(C)CCC2(C)C` [drawing 1043], in that order: -1% and -9%.
Regarding `Cc1cc2c(cc1Cc1ccc(C(=O)NC3CCCC(Nc4ccnc(NCC5CCCO5)n4)C3)o1)C(C)(C)CCC2(C)C` (stereo not drawn) [drawing 1045], the inhibition at 1 µM amounted to 17% under setting [1] and 25% under setting [2].
For `Cc1cc2c(cc1Cc1ccc(C(=O)NCCCCNc3nccc(NCC4CCCO4)n3)o1)C(C)(C)CCC2(C)C` (stereo not drawn) [drawing 1047], the inhibition at 1 µM by setting is: under setting [1], 27%; under setting [2], 38%.
For the molecule `Cc1cc2c(cc1Cc1ccc(C(=O)NCC3CN(Cc4ccccc4)CCO3)o1)C(C)(C)CCC2(C)C` (stereo not drawn) [drawing 1049], the inhibition at 1 µM was found to be 35% under setting [1] and 42% under setting [2].
As for `Cc1cc2c(cc1Cc1ccc(C(=O)NCCCN3CCCCC3)o1)C(C)(C)CCC2(C)C` [drawing 1050], the inhibition at 1 µM under setting [1] was -3% and the inhibition at 1 µM under setting [2] stood at 8%.
Consider `Cc1cc2c(cc1Cc1ccc(C(=O)NCCc3c[nH]cn3)o1)C(C)(C)CCC2(C)C` [drawing 1051], for which the “% Inhib. @ 1 uM hGnRH” value (1 uM) is listed as 32%. The “Repeats @ 1 uM hGnRH” value (repeat of % Inhib. at 1 uM) is recorded as 36.
As to `Cc1cc2c(cc1Cc1ccc(C(=O)NCc3ccc(S(N)(=O)=O)cc3)o1)C(C)(C)CCC2(C)C` [drawing 1052], the inhibition at 1 µM came out at 71% under setting [1] and 76% under setting [2].
On to `Cc1cc2c(cc1Cc1ccc(C(=O)NCc3nc4ccccc4[nH]3)o1)C(C)(C)CCC2(C)C` [drawing 1053], for which the inhibition at 1 µM came to 100% under setting [1] and 101% under setting [2].
With `Cc1cc2c(cc1Cc1ccc(C(=O)NCCc3ccc4c(c3)OCO4)o1)C(C)(C)CCC2(C)C` [drawing 1055], the inhibition at 1 µM reads like this: under setting [1], 51%; under setting [2], 56%.
For `COc1ccc(C(=O)CNC(=O)c2ccc(Cc3cc4c(cc3C)C(C)(C)CCC4(C)C)o2)cc1` [drawing 1056], in that order: 21% and 23%.
For `Cc1cc2c(cc1Cc1ccc(C(=O)NCCc3ccc([N+](=O)[O-])cc3)o1)C(C)(C)CCC2(C)C` [drawing 1057], the inhibition at 1 µM stood at 30% under setting [1] and 44% under setting [2].
